Where a SMILES comes first, the peptide text is derived from it. Bridges are numbered along the chain shown (N, C = ends). [ ]: non-standard residue; d: D form. The star is where a group is joined. Threoninol(2S,3R) = C[C@@H](O)[C@H](CO)N*
Key:
[1] = target: Beta-1 adrenergic receptor (Homo sapiens, UniProt P08588); test: DRUGMATRIX: Adrenergic beta1 radioligand binding (ligand: [125I] Cyanopindolol); assay type: cell membranes, CHO-K1, Membrane; settings: cho-k1; Not Active = under 50% inhibition at 10 µM
[2] = target: T1, 5-hydroxytryptamine receptor 2C (Homo sapiens, UniProt P28335); test: DRUGMATRIX: Serotonin (5-Hydroxytryptamine) 5-HT2C radioligand binding (ligand: [3H] Mesulergine); assay type: cell membranes, CHO-K1, Membrane; settings: cho-k1; Not Active = under 50% inhibition at 10 µM
T1 sequence (P28335 whole entry): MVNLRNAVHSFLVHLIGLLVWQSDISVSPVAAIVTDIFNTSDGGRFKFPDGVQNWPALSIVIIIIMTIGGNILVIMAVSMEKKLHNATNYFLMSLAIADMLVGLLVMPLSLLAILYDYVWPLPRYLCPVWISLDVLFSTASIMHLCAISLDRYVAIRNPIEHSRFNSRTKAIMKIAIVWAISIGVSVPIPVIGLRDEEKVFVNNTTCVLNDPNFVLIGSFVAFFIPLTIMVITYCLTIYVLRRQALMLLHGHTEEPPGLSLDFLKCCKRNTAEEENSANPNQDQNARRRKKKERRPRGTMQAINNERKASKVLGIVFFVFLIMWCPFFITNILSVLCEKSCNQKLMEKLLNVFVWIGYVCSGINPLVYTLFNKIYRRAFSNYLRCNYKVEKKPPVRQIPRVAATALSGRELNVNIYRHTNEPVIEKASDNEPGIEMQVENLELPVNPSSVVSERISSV

[3] = target: Sigma non-opioid intracellular receptor 1 (Homo sapiens, UniProt Q99720); test: DRUGMATRIX: Sigma1 radioligand binding (ligand: [3H] Haloperidol); assay type: cell membranes, Jurkat, Membrane; settings: jurkat; Not Active = under 50% inhibition at 10 µM
[4] = target: Protein kinase C alpha type (Homo sapiens, UniProt P17252); assay type: cell-based; settings: sf9;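 further: inhibition of PKCalpha kinase activity measured in an enzyme assay with histone as the phosphorylation substrate; in other assays of this panel Not Active means under 50% inhibition at 10 µM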
[5] = target: Mitogen-activated protein kinase 3 (Homo sapiens, UniProt P27361); test: DRUGMATRIX: Protein Serine/Threonine Kinase, ERK1 enzyme inhibition (substrate: Myelin Basic Protein); set-up: species or system Escherichia coli; settings: Not Active = under 50% inhibition at 10 µM
[6] = target: T2, D(4) dopamine receptor (Homo sapiens, UniProt P21917); test: DRUGMATRIX: Dopamine D4.2 radioligand binding (ligand: [3H] Spiperone); assay type: cell membranes, Membrane; settings: cho-k1; Not Active = under 50% inhibition at 10 µM
T2 sequence (P21917 whole entry): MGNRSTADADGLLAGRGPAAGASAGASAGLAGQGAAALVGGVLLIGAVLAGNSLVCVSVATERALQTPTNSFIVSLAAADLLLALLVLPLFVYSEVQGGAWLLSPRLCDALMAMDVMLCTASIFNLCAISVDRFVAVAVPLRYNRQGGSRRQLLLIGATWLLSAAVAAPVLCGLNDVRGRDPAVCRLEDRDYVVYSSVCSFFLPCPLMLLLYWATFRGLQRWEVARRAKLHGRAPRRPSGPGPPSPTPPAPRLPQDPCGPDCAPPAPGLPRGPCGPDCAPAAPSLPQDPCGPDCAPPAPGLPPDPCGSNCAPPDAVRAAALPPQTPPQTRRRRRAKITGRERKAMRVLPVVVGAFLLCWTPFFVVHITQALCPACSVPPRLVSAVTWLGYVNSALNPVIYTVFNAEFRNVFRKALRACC

[7] = DRUGMATRIX: Sodium/nucleoside co-transporter radioligand binding (ligand: nitrobenzylthioinosine); assay type: cell membranes, Cavia porcellus, Dunkin-Hartley, Cerebral cortex, Membrane; settings: Not Active = under 50% inhibition at 10 µM
[8] = DRUGMATRIX: Tumor Necrosis Factor (TNF), Non-Selective radioligand binding (ligand: [125I] TNF-alpha); assay type: cell membranes, Membrane; settings: u-937; Not Active = under 50% inhibition at 10 µM

Sequence of Sigma non-opioid intracellular receptor 1 (Q99720 whole entry): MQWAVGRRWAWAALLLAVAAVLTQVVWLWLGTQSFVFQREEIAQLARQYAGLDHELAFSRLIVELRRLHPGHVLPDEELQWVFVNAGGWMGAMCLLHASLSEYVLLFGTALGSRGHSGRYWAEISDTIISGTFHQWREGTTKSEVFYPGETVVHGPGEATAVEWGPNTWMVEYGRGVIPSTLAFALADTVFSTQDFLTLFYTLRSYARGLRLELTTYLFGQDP
Sequence of Mitogen-activated protein kinase 3 (P27361 whole entry): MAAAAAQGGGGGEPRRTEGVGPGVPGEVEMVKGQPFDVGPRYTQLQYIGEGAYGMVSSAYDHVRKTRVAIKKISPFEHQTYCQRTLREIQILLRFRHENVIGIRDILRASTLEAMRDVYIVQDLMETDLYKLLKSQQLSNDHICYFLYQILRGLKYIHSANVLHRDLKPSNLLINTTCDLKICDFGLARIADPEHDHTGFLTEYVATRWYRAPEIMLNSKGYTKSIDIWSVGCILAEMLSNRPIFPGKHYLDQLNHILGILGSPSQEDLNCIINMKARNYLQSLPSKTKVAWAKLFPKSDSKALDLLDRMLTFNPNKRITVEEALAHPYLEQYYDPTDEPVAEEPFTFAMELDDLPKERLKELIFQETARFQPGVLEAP
Sequence of Beta-1 adrenergic receptor (P08588 whole entry): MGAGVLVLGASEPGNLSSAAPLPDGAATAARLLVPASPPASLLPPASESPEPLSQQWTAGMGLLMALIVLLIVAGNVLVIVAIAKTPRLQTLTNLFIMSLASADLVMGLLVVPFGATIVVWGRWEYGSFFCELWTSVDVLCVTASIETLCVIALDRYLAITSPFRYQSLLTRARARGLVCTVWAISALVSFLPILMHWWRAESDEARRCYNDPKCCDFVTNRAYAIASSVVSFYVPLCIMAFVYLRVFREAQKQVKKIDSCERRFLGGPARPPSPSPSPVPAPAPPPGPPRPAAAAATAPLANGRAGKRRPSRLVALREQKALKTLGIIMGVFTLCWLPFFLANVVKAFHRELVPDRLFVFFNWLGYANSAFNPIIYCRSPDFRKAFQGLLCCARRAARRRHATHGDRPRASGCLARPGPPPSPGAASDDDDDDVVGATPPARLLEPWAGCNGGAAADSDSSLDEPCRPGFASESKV

CCOC(=O)C1=C(C)NC(C)=C(C(=O)OC)C1c1cccc([N+](=O)[O-])c1 (stereo unspecified) [NITRENDIPINE]
Not Active: IC50 [1] | IC50 [2] | IC50 [3] | IC50 [4] | IC50 [5] | IC50 [6] | IC50 [7] | Ki [7] | IC50 [8] | Ki [8]

CC1=C(C(=O)O)N2C(=O)[C@@H](NC(=O)[C@H](N)c3ccccc3)[C@H]2SC1 [CEPHALEXIN ANHYDROUS]
Not Active: IC50 [1] | IC50 [2] | IC50 [3] | IC50 [4] | IC50 [5] | IC50 [6] | IC50 [7] | Ki [7] | IC50 [8] | Ki [8]

CN(C)/N=N/c1[nH]cnc1C(N)=O [DACARBAZINE]
Not Active: IC50 [1] | IC50 [2] | IC50 [3] | IC50 [4] | IC50 [5] | IC50 [6] | IC50 [7] | Ki [7] | IC50 [8] | Ki [8]

COc1ccc2c(c1)[C@]13CCCC[C@@H]1[C@H](C2)N(C)CC3 [DEXTROMETHORPHAN]
Not Active: IC50 [1] | IC50 [2] | IC50 [3] | IC50 [4] | IC50 [5] | IC50 [6] | IC50 [7] | Ki [7] | IC50 [8] | Ki [8]

COc1ccccc1C(=O)N1CCC(Cc2ccccc2)CC1
Not Active: IC50 [1] | IC50 [2] | IC50 [3] | IC50 [4] | IC50 [5] | IC50 [6] | IC50 [7] | Ki [7] | IC50 [8] | Ki [8]

C=C1CC[C@H](O)C/C1=C/C=C1\CCC[C@]2(C)[C@@H]([C@H](C)CCCC(C)C)CC[C@@H]12 [CHOLECALCIFEROL]
Not Active: IC50 [1] | IC50 [2] | IC50 [3] | IC50 [4] | IC50 [5] | IC50 [6] | IC50 [7] | Ki [7] | IC50 [8] | Ki [8]

COc1cc2c(c3oc(=O)c4c(c13)CCC4=O)[C@@H]1C=CO[C@@H]1O2 [AFLATOXIN]
Not Active: IC50 [1] | Ki [1] | IC50 [2] | Ki [2] | IC50 [3] | Ki [3] | IC50 [4] | Ki [4] | IC50 [5] | Ki [5] | IC50 [6] | Ki [6] | IC50 [7] | Ki [7] | IC50 [8] | Ki [8]

COc1ccc2cc([C@H](C)C(=O)O)ccc2c1 [NAPROXEN]
Not Active: IC50 [1] | IC50 [2] | IC50 [3] | IC50 [4] | IC50 [5] | IC50 [6] | IC50 [7] | Ki [7] | IC50 [8] | Ki [8]

CC(C)Cc1ccc(C(C)C(=O)O)cc1 (stereo unspecified) [IBUPROFEN]
Not Active: IC50 [1] | IC50 [2] | IC50 [3] | IC50 [4] | IC50 [5] | IC50 [6] | IC50 [7] | Ki [7] | IC50 [8] | Ki [8]

CC(C)(C(=O)c1cccnc1)c1cccnc1 [METYRAPONE]
Not Active: IC50 [1] | IC50 [2] | IC50 [3] | IC50 [4] | IC50 [5] | IC50 [6] | IC50 [7] | Ki [7] | IC50 [8] | Ki [8]

Cc1ncc([N+](=O)[O-])n1CCO [METRONIDAZOLE]
Not Active: IC50 [1] | IC50 [2] | IC50 [3] | IC50 [4] | IC50 [5] | IC50 [6] | IC50 [7] | Ki [7] | IC50 [8] | Ki [8]

C[C@@H](O)[C@H](CO)NC(=O)[C@@H]1CSSC[C@H](NC(=O)[C@H](N)Cc2ccccc2)C(=O)N[C@@H](Cc2ccccc2)C(=O)N[C@H](Cc2c[nH]c3ccccc23)C(=O)N[C@@H](CCCCN)C(=O)N[C@@H]([C@@H](C)O)C(=O)N1 (H-[dF]CF[dW]KTC-{Threoninol(2S,3R)}; disulfide 2-7)
Not Active: IC50 [1] | IC50 [2] | IC50 [3] | IC50 [4] | IC50 [5] | IC50 [6] | IC50 [7] | Ki [7] | IC50 [8] | Ki [8]

COc1ccc2[nH]c([S+]([O-])Cc3ncc(C)c(OC)c3C)nc2c1 (stereo unspecified) [OMEPRAZOLE]
Not Active: IC50 [1] | IC50 [2] | IC50 [3] | IC50 [4] | IC50 [5] | IC50 [6] | IC50 [7] | Ki [7] | IC50 [8] | Ki [8]
